According to patent publication US20250255926A1, “GINGEROL COMPOSITIONS AND RELATED METHODS” (ThermoLife International, LLC, priority 2024, published 2025):
Read-outs that look alike come from different tables or passages of the source.

Assays:
[1] = cited from earlier work
[2] = test system: herpes simplex virus infection; experiment: Herpes simplex blister outbreak in two subjects (Example 6); assay type: in vivo, human; settings: same two subjects
Protocol: Two females ([…]) with a chronic herpes simplex virus infection with frequent outbreaks of blisters on their lips ingested 1000 ml of the water-soluble ginger extract produced according to Example 1 while acutely suffering from large painful blisters.
For past outbreaks, both subjects tried multiple remedies, both pharmaceutical and natural, to treat the blisters. They include Abriva®, tea tree oil, toothpaste, lysine, acyclovir, topical hydrogen peroxide, Vaseline® and Aquafor®.

CCCCC[C@H](O)CC(=O)CCc1ccc(O)c(OC)c1 [Example 6-gingerol, 6-gingerol]
Solubility, pH 2 - HCl buffer ([1]; pH 2): >100 μM
Solubility, pH 4 - citrate buffer ([1]; pH 4): >100 μM
Solubility, pH 7.4 - phosphate buffer ([1]; pH 7.4): >100 μM

CCCCC/C=C/C(=O)CCc1ccc(O)c(OC)c1 [Example 6-shogoal, 6-shogoal]
Solubility, pH 2 - HCl buffer ([1]; pH 2 HCl buffer, n = 2): <10 μM
Solubility, pH 4 - citrate buffer ([1]; pH 4 citrate buffer, n = 2): <10 μM
Solubility, pH 7.4 - phosphate buffer ([1]; pH 7.4 phosphate buffer, n = 2): <10 μM

CCCCCCC[C@H](O)CC(=O)CCc1ccc(O)c(OC)c1 [Example 8-gingerol, 8-gingerol]
Solubility, pH 2 - HCl buffer ([1]; pH 2): >100 μM
Solubility, pH 4 - citrate buffer ([1]; pH 4): >100 μM
Solubility, pH 7.4 - phosphate buffer ([1]; pH 7.4): >100 μM

CCCCCCCCC[C@H](O)CC(=O)CCc1ccc(O)c(OC)c1 [Example 10-gingerol, 10-gingerol]
Solubility, pH 2 - HCl buffer ([1]; pH 2 HCl buffer, n = 2): <10 μM
Solubility, pH 4 - citrate buffer ([1]; pH 4 citrate buffer, n = 2): <10 μM
Solubility, pH 7.4 - phosphate buffer ([1]; pH 7.4 phosphate buffer, n = 2): <10 μM

Nc1nc2c(ncn2COCCO)c(=O)[nH]1 [acyclovir]
Relief or healing of blisters in past outbreaks [2]: None of those remedies provided any noticeable immediate relief or greater healing of the symptoms

NCCCC[C@H](N)C(=O)O [lysine]
Relief or healing of blisters in past outbreaks [2]: None of those remedies provided any noticeable immediate relief or greater healing of the symptoms

OO [topical hydrogen peroxide, hydrogen peroxide]
Relief or healing of blisters in past outbreaks [2]: None of those remedies provided any noticeable immediate relief or greater healing of the symptoms
